Measured values taken from US20050112573A1, “Method of detecting toxic substance” (priority 2001, published 2005).

System: yeast genes (level of expressed mRNA)
Experiment: DNA chip analysis of expressed mRNA of yeast genes after 2 h culture with a toxic chemical substance
Format: cell-based, Saccharomyces cerevisiae S288C
Conditions: for The level of expressed mRNA in the presence of chemical substance/ (ratio to absence of chemical substance): stress protein genes, DNA chip
Protocol: Yeast (Saccharomyces cerevtisiae S288C (α SUC2mal mel gap2 CUP1)) were cultured at 25° C. on YPD medium (yeast extract 1%, polypepton 2%, glucose 2%). One of toxic chemical substances was added to the cell at logarithmic growth phase, and the cell was further cultured for two hours. Cell was cultured without any chemical substance in the same condition, and was used as control. Concentrations of the chemical substances were defined to inhibit the growth of the yeast but not lead to death.
After the completion of cultivation, the culture was centrifuged to collect the cells. To the cells, sodium acetate buffer (50 mM sodium acetate, 10 mM EDTA, 1% SDS) was added, and the mixture was shaken at 65° C. for five minutes, followed by returning to room temperature, and obtaining the supernatant, which procedure was repeated two times. To the supernatant, ½ amount of a solution of phenol/chloroform was added, and the mixture was centrifuged to give a supernatant, which was added with an equal amount of chloroform, and the mixture was centrifuged to give a supernatant. To the supernatant, an equal amount of isopropanol containing 0.3 M sodium acetate was added, and the mixture was allowed to stand at room temperature for 30 minutes, after which the mixture was centrifuged to give a sediment of the whole RNAs. Seventy % ethanol was added to the sediment, and the mixture was again centrifuged to give a sediment, which was then dried and dissolved in water. mRNA was isolated from the whole RNAs as followings. In view of the fact that a poly A chain is attached to the 3′ terminus of mRNA, a polynucleotide having a poly T structure which was immobilized on the surface of latex beads was used to trap the mRNA, and then the mRNA was washed and eluted with spine column (Oligotex-dT30<Super>mRNA Purification Kit, Takara). Reverse transcription of the mRNA was conducted with a reverse transcriptase (Super Script II Reverse Transcriptase; catalogue No. 18064-014, GibcoBRL) using fluorescence-labeled nucleotides to give cDNAs that were introduced with Cy3-dUTP or Cy5-dUTP during the reverse transcription.
The labeled cDNAs were dissolved in TE buffer (10 mM Tris-HCl/1 mM EDTA, pH8.0), and the solution was dropped on the DNA chip containing the whole genes of yeast (DNA Chip Research Inc. Japan) so that the cDNAs were hybridized on the DNA chip at 65° C. for over 12 hours. The fluoresces intensity of the DNA chip was read with a scanner, and the ratio relative to the fluorescence intensity resulting from the absence of chemical substance was estimated as the following, which is shown in Tables 1 to 9: [formula]
In the Tables, “Intensity” indicated in the rightmost column is a value of the level of expressed mRNA of each gene in control cells as divided by the average level of the expressions of the whole genes.

SMILES: COc1cc(CNC(=O)CCCCC=CC(C)C)ccc1O [(12), 8-methyl-N-vanillyl-6-nonenamide]
- The level of expressed mRNA in the presence of chemical substance/The level of expressed mRNA in the absence of chemical substance (yeast gene YIL123W): 0.8
- The level of expressed mRNA in the presence of chemical substance/The level of expressed mRNA in the absence of chemical substance (yeast gene YIL140W): 1.0
- The level of expressed mRNA in the presence of chemical substance/The level of expressed mRNA in the absence of chemical substance (yeast gene YJL052W, two hours culture): 2.4
- The level of expressed mRNA in the presence of chemical substance/ (in its absence), gene YJL070C (yeast gene YJL070C, ratio of DNA chip fluorescence intensity to that without chemical substance): 1.0
- The level of expressed mRNA in the presence of chemical substance/The level of expressed mRNA in the absence of chemical substance (yeast gene YJL073W): 1.0
- The level of expressed mRNA in the presence of chemical substance/The level of expressed mRNA in the absence of chemical substance (yeast gene YJL089W): 1.2
- The level of expressed mRNA in the presence of chemical substance/ (ratio to absence), gene YJL096W (yeast gene YJL096W, mitochondria-located protein genes, 2 h culture with chemical): 1.0
- The level of expressed mRNA in the presence of chemical substance/The level of expressed mRNA in the absence of chemical substance (yeast gene YJL116C): 1.1
- The level of expressed mRNA in the presence of chemical substance/ (ratio to absence of chemical substance) (yeast gene YJL158C): 1.1
- The level of expressed mRNA in the presence of chemical substance/ (in its absence), gene YJL167W (yeast gene YJL167W, ratio of DNA chip fluorescence intensity to that without chemical substance): 1.3
- The level of expressed mRNA in the presence of chemical substance/ (ratio to absence), gene YJL180C (yeast gene YJL180C, mitochondria-located protein genes, 2 h culture with chemical): 0.8
- The level of expressed mRNA in the presence of chemical substance/ (in its absence), gene YJL216C (yeast gene YJL216C, ratio of DNA chip fluorescence intensity to that without chemical substance): 1.0
- The level of expressed mRNA in the presence of chemical substance/The level of expressed mRNA in the absence of chemical substance (yeast gene YJR004C): 0.8
- The level of expressed mRNA in the presence of chemical substance/The level of expressed mRNA in the absence of chemical substance (yeast gene YJR086W): 0.8
- The level of expressed mRNA in the presence of chemical substance/ (ratio to absence of chemical substance) (yeast gene YJR090C): 0.8
- The level of expressed mRNA in the presence of chemical substance/The level of expressed mRNA in the absence of chemical substance (yeast gene YKL008C): 1.5
- The level of expressed mRNA in the presence of chemical substance/The level of expressed mRNA in the absence of chemical substance (yeast gene YKL013C): 0.7
- The level of expressed mRNA in the presence of chemical substance/The level of expressed mRNA in the absence of chemical substance (yeast gene YKL039W): 0.9
- The level of expressed mRNA in the presence of chemical substance/The level of expressed mRNA in the absence of chemical substance (yeast gene YKL041W): 0.8
- The level of expressed mRNA in the presence of chemical substance/The level of expressed mRNA in the absence of chemical substance (yeast gene YKL096W): 0.3
- The level of expressed mRNA in the presence of chemical substance/ (ratio to absence of chemical substance) (yeast gene YKL164C): 0.8
- The level of expressed mRNA in the presence of chemical substance/The level of expressed mRNA in the absence of chemical substance (yeast gene YKL165C): 2.4
- The level of expressed mRNA in the presence of chemical substance/The level of expressed mRNA in the absence of chemical substance (yeast gene YKL193C): 0.9
- The level of expressed mRNA in the presence of chemical substance/ (in its absence), gene YKR009C (yeast gene YKR009C, ratio of DNA chip fluorescence intensity to that without chemical substance): 1.0
- The level of expressed mRNA in the presence of chemical substance/ (in its absence), gene YKR034W (yeast gene YKR034W, ratio of DNA chip fluorescence intensity to that without chemical substance): 0.7
- The level of expressed mRNA in the presence of chemical substance/ (ratio to absence of chemical substance) (yeast gene YKR053C): 0.7
- The level of expressed mRNA in the presence of chemical substance/ in its absence, gene YKR058W (yeast gene YKR058W, energy system protein genes, 2 h culture with the chemical, ratio to control without chemical): 0.9
- The level of expressed mRNA in the presence of chemical substance/ (in its absence), gene YLR006C (yeast gene YLR006C, ratio of DNA chip fluorescence intensity to that without chemical substance): 0.7
- The level of expressed mRNA in the presence of chemical substance/ (ratio to absence of chemical substance) (yeast gene YLR006C): 0.7
- The level of expressed mRNA in the presence of chemical substance/The level of expressed mRNA in the absence of chemical substance (yeast gene YLR120C): 1.6
- The level of expressed mRNA in the presence of chemical substance/The level of expressed mRNA in the absence of chemical substance (yeast gene YLR136C): 1.3
- The level of expressed mRNA in the presence of chemical substance/The level of expressed mRNA in the absence of chemical substance (yeast gene YLR178C): 2.2
- The level of expressed mRNA in the presence of chemical substance/The level of expressed mRNA in the absence of chemical substance (yeast gene YLR250W): 1.0
- The level of expressed mRNA in the presence of chemical substance/ in its absence, gene YLR295C (yeast gene YLR295C, energy system protein genes, 2 h culture with the chemical, ratio to control without chemical): 0.5
- The level of expressed mRNA in the presence of chemical substance/ (ratio to absence), gene YLR295C (yeast gene YLR295C, mitochondria-located protein genes, 2 h culture with chemical): 0.5
- The level of expressed mRNA in the presence of chemical substance/The level of expressed mRNA in the absence of chemical substance (yeast gene YLR327C): 1.4
- The level of expressed mRNA in the presence of chemical substance/ (in its absence), gene YLR351C (yeast gene YLR351C, ratio of DNA chip fluorescence intensity to that without chemical substance): 0.9
- The level of expressed mRNA in the presence of chemical substance/The level of expressed mRNA in the absence of chemical substance (yeast gene YLR356W): 1.5
- The level of expressed mRNA in the presence of chemical substance/The level of expressed mRNA in the absence of chemical substance (yeast gene YLR362W): 0.8
- The level of expressed mRNA in the presence of chemical substance/ (in its absence), gene YLR375W (yeast gene YLR375W, ratio of DNA chip fluorescence intensity to that without chemical substance): 0.9
- The level of expressed mRNA in the presence of chemical substance/The level of expressed mRNA in the absence of chemical substance (yeast gene YLR391W): 1.0
- The level of expressed mRNA in the presence of chemical substance/The level of expressed mRNA in the absence of chemical substance (yeast gene YLR429W): 1.1
- The level of expressed mRNA in the presence of chemical substance/ in its absence, gene YML129C (yeast gene YML129C, energy system protein genes, 2 h culture with the chemical, ratio to control without chemical): 0.8
- The level of expressed mRNA in the presence of chemical substance/ (ratio to absence), gene YML129C (yeast gene YML129C, mitochondria-located protein genes, 2 h culture with chemical): 0.8
- The level of expressed mRNA in the presence of chemical substance/The level of expressed mRNA in the absence of chemical substance (yeast gene YMR004W): 1.0
- The level of expressed mRNA in the presence of chemical substance/ (ratio to absence), gene YMR023C (yeast gene YMR023C, mitochondria-located protein genes, 2 h culture with chemical): 0.7
- The level of expressed mRNA in the presence of chemical substance/The level of expressed mRNA in the absence of chemical substance (yeast gene YMR094W): 0.9
- The level of expressed mRNA in the presence of chemical substance/The level of expressed mRNA in the absence of chemical substance (yeast gene YMR104C): 1.0
- The level of expressed mRNA in the presence of chemical substance/ (ratio to absence of chemical substance) (yeast gene YMR186W): 1.0
- The level of expressed mRNA in the presence of chemical substance/The level of expressed mRNA in the absence of chemical substance (yeast gene YMR219W): 1.5
- The level of expressed mRNA in the presence of chemical substance/The level of expressed mRNA in the absence of chemical substance (yeast gene YMR226C): 1.1
- The level of expressed mRNA in the presence of chemical substance/ in its absence, gene YMR267W (yeast gene YMR267W, energy system protein genes, 2 h culture with the chemical, ratio to control without chemical): 0.8
- The level of expressed mRNA in the presence of chemical substance/ (ratio to absence), gene YMR267W (yeast gene YMR267W, mitochondria-located protein genes, 2 h culture with chemical): 0.8
- The level of expressed mRNA in the presence of chemical substance/ in its absence, gene YMR267W (yeast gene YMR267W, ratio of DNA chip fluorescence intensity to that without chemical substance): 0.8
- The level of expressed mRNA in the presence of chemical substance/The level of expressed mRNA in the absence of chemical substance (yeast gene YMR275C): 0.7
- The level of expressed mRNA in the presence of chemical substance/The level of expressed mRNA in the absence of chemical substance (yeast gene YMR276W): 1.2
- The level of expressed mRNA in the presence of chemical substance/ (in its absence), gene YMR278W (yeast gene YMR278W, ratio of DNA chip fluorescence intensity to that without chemical substance): 1.0
- The level of expressed mRNA in the presence of chemical substance/ (in its absence), gene YMR293C (yeast gene YMR293C, ratio of DNA chip fluorescence intensity to that without chemical substance): 0.9
